Measurements published in ChEMBL document CHEMBL5528044, “Exploring the Function of (+)-Naltrexone Precursors: Their Activity as TLR4 Antagonists and Potential in Treating Morphine Addiction” (J Med Chem, 2024).
Active and inactive are the calls of the source. No cut-off for these calls is given here.

How the values were obtained:
[1] = Half life in Balb/c mouse at 2 mg/kg,iv administration and measured upto 24 hrs by LC-MS/MS analysis; type: ADME, organism-based; settings: in vivo
[2] = Clearance in Balb/c mouse at 2 mg/kg,iv administration and measured upto 24 hrs by LC-MS/MS analysis; type: ADME, organism-based; settings: in vivo
[3] = Cmax in Balb/c mouse at 20 mg/kg,po administration and measured upto 24 hrs by LC-MS/MS analysis; type: ADME, organism-based; settings: in vivo
[4] = AUC (0 to infinity) in Balb/c mouse at 20 mg/kg,po administration and measured upto 24 hrs by LC-MS/MS analysis; type: ADME, organism-based; settings: in vivo
[5] = target: T1, Toll-like receptor 4 (Mus musculus) (UniProt Q9QUK6); experiment: Antagonist activity at TLR4 signaling pathway in mouse BV-2 cells assessed as inhibition of LPS-induced MyD88 recruitment at 5 uM incubated for 1 hr by co-immunoprecipitation based Western blot analysis; type: cell-based
T1 sequence (whole entry): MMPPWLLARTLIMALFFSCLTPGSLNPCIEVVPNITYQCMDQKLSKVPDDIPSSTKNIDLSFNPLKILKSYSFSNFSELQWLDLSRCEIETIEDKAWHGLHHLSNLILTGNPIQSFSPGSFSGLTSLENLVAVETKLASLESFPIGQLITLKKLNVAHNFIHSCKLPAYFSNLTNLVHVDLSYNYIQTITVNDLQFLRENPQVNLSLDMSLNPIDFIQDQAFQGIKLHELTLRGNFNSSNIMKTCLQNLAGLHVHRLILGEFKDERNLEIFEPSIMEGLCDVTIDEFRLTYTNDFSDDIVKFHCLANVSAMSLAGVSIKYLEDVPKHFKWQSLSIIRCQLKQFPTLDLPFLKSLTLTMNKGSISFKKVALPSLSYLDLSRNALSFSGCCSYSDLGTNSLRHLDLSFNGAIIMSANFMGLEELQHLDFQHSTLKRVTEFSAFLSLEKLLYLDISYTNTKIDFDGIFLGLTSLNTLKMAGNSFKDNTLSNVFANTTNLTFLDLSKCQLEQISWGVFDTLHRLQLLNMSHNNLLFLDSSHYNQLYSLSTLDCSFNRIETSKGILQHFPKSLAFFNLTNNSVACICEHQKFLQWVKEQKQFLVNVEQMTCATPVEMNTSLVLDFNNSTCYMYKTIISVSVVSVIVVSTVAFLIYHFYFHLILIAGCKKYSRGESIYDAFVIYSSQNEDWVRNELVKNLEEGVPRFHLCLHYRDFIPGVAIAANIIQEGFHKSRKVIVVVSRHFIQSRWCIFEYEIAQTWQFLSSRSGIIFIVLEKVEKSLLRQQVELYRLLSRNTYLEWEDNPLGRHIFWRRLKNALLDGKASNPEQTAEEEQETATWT

[6] = target: T1, Toll-like receptor 4 (Mus musculus); experiment: Antagonist activity at TLR4 signaling pathway in mouse BV-2 cells assessed as downregulation of LPS-induced IKKalpha phosphorylation at 5 uM incubated for 1 hr by Western blot analysis; type: cell-based; settings: filed as antagonist
[7] = target: T1, Toll-like receptor 4 (Mus musculus); experiment: Antagonist activity at TLR4 signaling pathway in mouse BV-2 cells assessed as downregulation of LPS-induced IKKbeta phosphorylation at 5 uM incubated for 1 hr by Western blot analysis; type: cell-based; settings: filed as antagonist
[8] = target: T1, Toll-like receptor 4 (Mus musculus); experiment: Antagonist activity at TLR4 signaling pathway in mouse BV-2 cells assessed as downregulation of LPS-induced JNK phosphorylation at 5 uM incubated for 1 hr by Western blot analysis; type: cell-based; settings: filed as antagonist
Mus musculus [9] = experiment: Inhibition of morphine-induced addiction behavior in Balb/c mouse assessed as decrease in morphine-induced behavioral sensitization during induction phase at 0.005 to 0.2 mg/kg,ip administrated on day 4 to 10 by open-field test; type: functional, organism-based; settings: dose 0.005-0.2 mg/kg, time 7.0 day
[10] = Toxicity in morphine-induced Balb/c mouse assessed body weight loss at 0.2 mg/kg,ip administrated for 1 week; type: organism-based; settings: in vivo, 168 h, time 1 weeks
Mus musculus [11] = experiment: Inhibition of chronic morphine-induced microglia activation in Balb/c mouse assessed as reduction in Iba1 expression in brain ventral tegmental area region at 0.2 mg/kg,ip administrated for 6 consecutive days by immunofluorescence staining based analysis; type: functional, organism-based
Mus musculus [12] = experiment: Inhibition of chronic morphine-induced microglia activation in Balb/c mouse assessed as reduction in TNF-alpha mRNA expression in brain nucleus accumbens region at 0.2 mg/kg,ip administrated for 6 consecutive days by qPCR analysis; type: functional, organism-based

SMILES | half-life [1] | clearance [2] | Cmax [3] | AUC(0-inf) [4] | Activity [5] | Activity [6] | Activity [7] | Activity [8] | inhibition (Mus musculus [9]) | Activity [10] | inhibition (Mus musculus [11]) | inhibition (Mus musculus [12])
CN1CC[C@@]23c4c5ccc(O)c4O[C@@H]2C(=O)C=C[C@]3(O)[C@@H]1C5 (single isomer, unassigned) | 132 min | 469 mL/min/kg | 51.5 ng/mL | 295 ng·h/mL | inactive | Active | Active | Active | Dose-Dependent Effect | Non-Toxic | Active | Active
COc1ccc2c3c1O[C@@H]1C(=O)C=C[C@]4(O)[C@H](C2)N(C)CC[C@@]314 (single isomer, unassigned) | 36 min |  | 25 ng/mL | 89.6 ng·h/mL | inactive | Active | Active | Active | Dose-Dependent Effect | Non-Toxic | Active | Active
